Test results as given in US20160259918A1, “Computational Approach for Identifying a Combination of Two Drugs” (ALACRIS THERANOSTICS GMBH, priority 2013, published 2016).
Like-named read-outs stand apart in the source and are kept apart here.

Test system: cell line HS695T
Assay: Cell viability via Trypan blue staining in cell culture experiments
Format: cell-based
Details: Homo sapiens, Hs 695T
Description: Cell lines and pharmacological characterization. Cell line HS695T (CLS) was cultured in DMEM (4 mM L-glutamine, 4.5 g/l glucose, Invitrogen) with 10% fetal bovine serum (Biochrom) and maintained at 37° C. under 5% CO2 atmosphere. The cells were dispensed as triplicates into a 6-well-plate-formate with a concentration of 5×10^5 per well 24 hours prior to drug treatment. Afterwards medium was replaced with a final drug concentration range of 2.5 nM to 8 μM by 3.16-fold dilutions (eight-dose response) of Sunitinib and PI103 as single treatment HS695T for 72 and 96 hours. […] Compounds (Selleckchem) were diluted in DMSO. The final DMSO concentration for the experiments was under 0.4%. Cell viability was determined via Trypan blue staining in duplicates for each well. 100 μl of cells were incubated with an equal volume of 0.5% Trypan blue for 2-5 minutes (in 0.9% sodium chloride) and counted using a Neubauer haemocytometer chamber and a light microscope. The means of independent cell counts were taken for analysis.
Predicted growth inhibition curves were compared to measured growth inhibition curves as previously described.

SMILES	IC50 (read-out: IC50 values determined by cell culture experiments) [nM]	IC50 (read-out: sensitivity classification according to IC50 determined by cell culture experiments) [nM]	IC50 (HS695T, read-out: sensitivity classification according to IC50 determined by cell culture experiments) [nM]	IC50 (HS695T, single treatment, 2.5 nM to 8 μM, 72 and 96 hours, Trypan blue cell counts, read-out: IC50 values determined by cell culture experiments) [nM]
Oc1cccc(-c2nc(N3CCOCC3)c3oc4ncccc4c3n2)c1 [PI103]	830	< 2000	–	–
CCN(CC)CCNC(=O)c1c(C)[nH]c(/C=C2\C(=O)Nc3ccc(F)cc32)c1C [Sunitinib]	–	–	> 2000	4700
